Assay results as given in PubChem BioAssay AID180 (DTP/NCI, 2004).
Several values for one entry are separate records, joined by “and”; a condition that tells them apart may be missing. Equal entries are not always repeated.

Test system: BDF1 mice, Adenocarcinoma 755 s.c., tumor weight T/C
Test: NCI In Vivo Anticancer Drug Screen. Data for tumor model Adenocarcinoma 755 (subcutaneous) in B6D2F1 (BDF1) mice
Details: endpoint: mean tumor weight, schedule: Q01DX011 (ip), higher = larger tumour
Summary of the method: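 Transplantable tumor implanted; mice dosed with compound or vehicle; survival or tumor size recorded; ratio of treated to vehicle control reported.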

[1] = dose: 12.5 mg/kg/injection, vehicle: methylcellulose (MC)
[2] = dose: 25.0 mg/kg/injection, vehicle: methylcellulose (MC)
[3] = dose: 50.0 mg/kg/injection, vehicle: methylcellulose (MC)
[4] = dose: 100.0 mg/kg/injection, vehicle: methylcellulose (MC)
[5] = dose: 100.0 mg/kg/injection, vehicle: other
[6] = dose: 200.0 mg/kg/injection, vehicle: other
[7] = dose: 50.0 mg/kg/injection, vehicle: carboxymethylcellulose (CMC)
[8] = dose: 100.0 mg/kg/injection, vehicle: carboxymethylcellulose (CMC)
[9] = dose: 200.0 mg/kg/injection, vehicle: carboxymethylcellulose (CMC)

For `CCN(CC)CCNc1ccc(C)c2sc3ccccc3c(=O)c12`, the T/C [1] was 73 % of control, the T/C (dose: 12.93 mg/kg/injection, vehicle: carboxymethylcellulose (CMC)) was 98 % of control and the T/C [2] was 51 % of control. For the same compound, the T/C (dose: 25.87 mg/kg/injection, vehicle: carboxymethylcellulose (CMC)) was 117 % of control, the T/C (dose: 25.88 mg/kg/injection, vehicle: carboxymethylcellulose (CMC)) was 73 % of control and the T/C (dose: 32.35 mg/kg/injection, vehicle: carboxymethylcellulose (CMC)) was 75 % of control. The T/C (dose: 43.13 mg/kg/injection, vehicle: carboxymethylcellulose (CMC)) was 49 % of control, the T/C [3] was 35 % of control and the T/C (dose: 51.75 mg/kg/injection, vehicle: carboxymethylcellulose (CMC)) was 44 % of control and 46 % of control and 59 % of control. The T/C (dose: 59.1 mg/kg/injection, vehicle: carboxymethylcellulose (CMC)) was 15 % of control, the T/C (dose: 64.7 mg/kg/injection, vehicle: carboxymethylcellulose (CMC)) was 23 % of control and the T/C (dose: 82.8 mg/kg/injection, vehicle: carboxymethylcellulose (CMC)) was 7 % of control. For the same compound, the T/C [4] was 1 % of control, the T/C (dose: 103.5 mg/kg/injection, vehicle: carboxymethylcellulose (CMC)) was 5 % of control and the T/C (dose: 1617.5 micrograms/kg/injection, vehicle: carboxymethylcellulose (CMC)) was 70 % of control. For the same compound, the T/C (dose: 3235.0 micrograms/kg/injection, vehicle: carboxymethylcellulose (CMC)) was 38 % of control, the T/C (dose: 6470.0 micrograms/kg/injection, vehicle: carboxymethylcellulose (CMC)) was 15 % of control and the T/C (dose: 8087.0 micrograms/kg/injection, vehicle: carboxymethylcellulose (CMC)) was 72 % of control.
In the case of `CCCCNc1ncnc2c1cnn2C1CCCCO1` (stereo not drawn), the T/C (dose: 3.12 mg/kg/injection, vehicle: methylcellulose (MC)) is reported as 39 % of control, the T/C (dose: 6.25 mg/kg/injection, vehicle: methylcellulose (MC)) is reported as 44 % of control and the T/C [1] is reported as 20 % of control. For the same compound, the T/C [2] was 12 % of control.
`CCCn1cnc2c(SCCc3ccccc3)nc(N)nc21` was tested, and the T/C [3] was 47 % of control, the T/C [4] was 15 % of control and the T/C (dose: 200.0 mg/kg/injection, vehicle: methylcellulose (MC)) was 18 % of control.
With `CC(=O)NCC(=O)O` the T/C [5] was 106 % of control, the T/C [6] was 74 % of control and the T/C (dose: 800.0 mg/kg/injection, vehicle: other) was 87 % of control.
`NC(N)=Nc1nc2ccccc2o1` was tested, and the T/C (dose: 55.0 mg/kg/injection, vehicle: methylcellulose (MC)) was 109 % of control, the T/C (dose: 110.0 mg/kg/injection, vehicle: methylcellulose (MC)) was 99 % of control and the T/C (dose: 220.0 mg/kg/injection, vehicle: methylcellulose (MC)) was 94 % of control. The T/C (dose: 330.0 mg/kg/injection, vehicle: methylcellulose (MC)) was 66 % of control and the T/C (dose: 440.0 mg/kg/injection, vehicle: methylcellulose (MC)) was 78 % of control.
`CCN(CC)P(=O)(N1CC1)N1CC1` was tested, and the T/C (dose: 0.5 mg/kg/injection, vehicle: saline) was 60 % of control, the T/C (dose: 1.0 mg/kg/injection, vehicle: saline) was 68 % of control and the T/C (dose: 2.0 mg/kg/injection, vehicle: other) was 50 % of control. The T/C (dose: 2.0 mg/kg/injection, vehicle: saline) was 43 % of control and 47 % of control, the T/C (dose: 4.0 mg/kg/injection, vehicle: other) was 26 % of control and the T/C (dose: 4.0 mg/kg/injection, vehicle: saline) was 18 % of control and 39 % of control. The T/C (dose: 8.0 mg/kg/injection, vehicle: other) was 14 % of control and the T/C (dose: 8.0 mg/kg/injection, vehicle: saline) was 10 % of control.
For `Cn1c(=O)c2c(nc(/N=C/c3ccccc3)n2C)n(C)c1=O`, the T/C [2] was 51 % of control.
`NS(=O)(=O)c1nc(S(=O)(=O)O)c2[nH]cnc2n1` was tested, and the T/C (dose: 30.0 mg/kg/injection, vehicle: carboxymethylcellulose (CMC)) was 95 % of control, the T/C (dose: 60.0 mg/kg/injection, vehicle: carboxymethylcellulose (CMC)) was 76 % of control and the T/C (dose: 120.0 mg/kg/injection, vehicle: carboxymethylcellulose (CMC)) was 86 % of control.
In the case of `O=C(O)c1cccc2c3c(cc([N+](=O)[O-])c12)CCCC3`, the T/C (dose: 0.18 mg/kg/injection, vehicle: carboxymethylcellulose (CMC)) is reported as 101 % of control, the T/C (dose: 0.37 mg/kg/injection, vehicle: carboxymethylcellulose (CMC)) is reported as 97 % of control and the T/C (dose: 1.5 mg/kg/injection, vehicle: carboxymethylcellulose (CMC)) is reported as 85 % of control.
`CSc1nc(N)nc2c1ncn2Cc1ccccc1` was tested, and the T/C (dose: 75.0 mg/kg/injection, vehicle: methylcellulose (MC)) was 74 % of control, the T/C (dose: 150.0 mg/kg/injection, vehicle: methylcellulose (MC)) was 53 % of control and the T/C (dose: 300.0 mg/kg/injection, vehicle: methylcellulose (MC)) was 64 % of control.
`CCOC(=O)C(Cc1ccc(N(CCCl)CCCl)cc1)NP1(=O)NCCCO1` (stereo not drawn) was tested, and the T/C (dose: 36.0 mg/kg/injection, vehicle: saline) was 21 % of control.
With `Cc1cc(O)c(C(C)C)cc1S(=O)(=O)O` (tested in a mixture with another compound) the T/C (dose: 25.0 mg/kg/injection, vehicle: carboxymethylcellulose (CMC)) was 78 % of control, the T/C (dose: 25.0 mg/kg/injection, vehicle: other) was 32 % of control and the T/C [7] was 53 % of control. For the same compound, the T/C (dose: 50.0 mg/kg/injection, vehicle: other) was 83 % of control, the T/C [8] was 49 % of control and the T/C [5] was 44 % of control. For the same compound, the T/C [9] was 42 % of control and the T/C [6] was 7 % of control.
`CC(=O)OCC1OC(n2cnc3c(=O)[nH]c(=O)[nH]c32)C(OC(C)=O)C1OC(C)=O` (stereo not drawn) was tested, and the T/C (dose: 30.0 mg/kg/injection, vehicle: saline) was 101 % of control, the T/C (dose: 60.0 mg/kg/injection, vehicle: saline) was 103 % of control and the T/C (dose: 120.0 mg/kg/injection, vehicle: saline) was 86 % of control. For the same compound, the T/C (dose: 240.0 mg/kg/injection, vehicle: saline) was 112 % of control.
With `Cn1c(=O)c2c(nc(Cl)n2CCl)n(C)c1=O` the T/C [2] was 60 % of control.
`Nc1nc(SCCc2ccccc2)c2[nH]cnc2n1` was tested, and the T/C (dose: 31.25 mg/kg/injection, vehicle: carboxymethylcellulose (CMC)) was 106 % of control, the T/C [7] was 97 % of control and the T/C (dose: 62.5 mg/kg/injection, vehicle: carboxymethylcellulose (CMC)) was 52 % of control. The T/C [8] was 81 % of control, the T/C (dose: 125.0 mg/kg/injection, vehicle: carboxymethylcellulose (CMC)) was 19 % of control and the T/C [9] was 74 % of control. For the same compound, the T/C (dose: 250.0 mg/kg/injection, vehicle: carboxymethylcellulose (CMC)) was 6 % of control, the T/C (dose: 400.0 mg/kg/injection, vehicle: carboxymethylcellulose (CMC)) was 75 % of control and the T/C (dose: 800.0 mg/kg/injection, vehicle: carboxymethylcellulose (CMC)) was 22 % of control.
`O=C(O)Cn1cccc1` was tested, and the T/C (dose: 250.0 mg/kg/injection, vehicle: other) was 80 % of control, the T/C (dose: 500.0 mg/kg/injection, vehicle: other) was 98 % of control and the T/C (dose: 4000.0 mg/kg/injection, vehicle: other) was 70 % of control.
`Cn1cc(F)c(=O)[nH]c1=O` was tested, and the T/C (dose: 5.0 mg/kg/injection, vehicle: carboxymethylcellulose (CMC)) was 86 % of control, the T/C (dose: 10.0 mg/kg/injection, vehicle: carboxymethylcellulose (CMC)) was 117 % of control and the T/C (dose: 20.0 mg/kg/injection, vehicle: carboxymethylcellulose (CMC)) was 87 % of control. The T/C (dose: 40.0 mg/kg/injection, vehicle: carboxymethylcellulose (CMC)) was 99 % of control.
For `CN(C)N=Nc1ccc(C(=O)NN)cc1`, the T/C (dose: 75.0 mg/kg/injection, vehicle: carboxymethylcellulose (CMC)) was 31 % of control and the T/C [8] was 15 % of control.
